For data set [1], the target named is T1, recombinant human calcitonin receptor (hCT-R) (Homo sapiens, UniProt P30988).
T1 construct: host or cells: human astrocytoma cell line 1321N1
T1 sequence (P30988 25-474): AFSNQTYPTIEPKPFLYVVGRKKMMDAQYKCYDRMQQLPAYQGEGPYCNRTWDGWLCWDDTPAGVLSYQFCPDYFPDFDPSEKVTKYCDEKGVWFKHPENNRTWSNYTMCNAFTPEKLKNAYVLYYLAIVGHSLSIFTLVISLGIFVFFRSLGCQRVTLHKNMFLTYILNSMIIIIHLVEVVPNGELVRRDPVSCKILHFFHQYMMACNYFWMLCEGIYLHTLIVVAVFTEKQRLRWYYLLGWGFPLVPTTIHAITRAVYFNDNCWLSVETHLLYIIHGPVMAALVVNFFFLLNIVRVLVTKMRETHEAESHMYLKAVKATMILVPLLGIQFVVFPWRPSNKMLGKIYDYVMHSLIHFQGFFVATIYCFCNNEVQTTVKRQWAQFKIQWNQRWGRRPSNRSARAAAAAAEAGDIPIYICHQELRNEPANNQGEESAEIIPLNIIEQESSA
As to the kind of experiment: hCT-R cAMP assay (AlphaScreen) in 1321N1 cells. Type of data set: cell-based. The following applies: cAMP formation, 45 min stimulation. A digest of the protocol: (§1)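 EC50 values come from curve fits over at least 7 peptide concentrations, with cAMP read by AlphaScreen competition after 1 h in the dark. Cells were 1321N1 lines carrying human calcitonin receptor, with RAMP3 co-expressed for AMY3, treated 45 min at room temperature in the presence of IBMX.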
(In general: Changes in cAMP serve as a functional read-out for many G protein-coupled receptors.)

In data set [2] the target is T2, recombinant human amylin 3 receptor (hAMYR3) (Homo sapiens, UniProt O60896+P30988).
T2 construct: host or cells: human astrocytoma cell line 1321N1
T2 sequence (P30988 25-474): T1 sequence (P30988 25-474)
T2 sequence (O60896 24-148 partner): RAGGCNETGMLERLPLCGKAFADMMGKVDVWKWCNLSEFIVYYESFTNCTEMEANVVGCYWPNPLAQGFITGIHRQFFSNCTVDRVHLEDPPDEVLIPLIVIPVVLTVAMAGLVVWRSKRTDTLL
Description: hAMYR3 cAMP assay (AlphaScreen) in 1321N1 cells. The following applies: cAMP formation, 45 min stimulation. Type of data set: cell-based. The method, boiled down:
as §1

Data set [3] can be described thus: Assessment of physical stability: fibril formation by Thioflavin T fluorescence. Type of data set: physicochemical. Also noted: key: FND = fibrillation not detected; FD = fibrillation detected. As to conditions: 1 mg/mL peptide; for Fibrillation (in buffer) pH4 acetate: 50 mM acetate buffer pH 4.0, 96 hours at 40° C.; for Fibrillation (in buffer) pH7 histidine: 50 mM histidine buffer pH 7.0, 96 hours at 40° C.; for Fibrillation (in buffer) pH7 phosphate: 50 mM phosphate buffer pH 7.0, 96 hours at 40° C. The method, boiled down:
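Fibrillation detected (FD) means a significant rise in ThT fluorescence over 96 hours at 40° C, read at 10 min intervals each preceded by 300 s automixing. Samples: 1 mg/mL peptide, 40 μM ThT, in 50 mM phosphate or histidine (pH 7.0) or acetate (pH 4.0), triplicate.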

Data set [4] is described as follows: Effect on acute food intake and body weight in normal Sprague Dawley rats. The class given is in vivo, Sprague Dawley (SD) rats. The following applies: Dose: 30 nmol/kg sc, vehicle-corrected. An excerpt:
Sprague Dawley (SD) rats were obtained from Janvier Labs, France. The animals arrived at least 14 days before the study start to allow acclimatization to experimental conditions. From arrival and throughout the study, the rats were housed in groups of 2 to 4 (n=2-4) in a light-, temperature- and humidity-controlled room. Animals had access ad libitum to food (KLIBA 3430, Provimi Kliba AG, Switzerland) and water (domestic quality tap water) during the entire study. Per group 6-8 rats were included. A vehicle group and positive control group were included in each set of tests. […] Dosing volume was 2 ml/kg. Food intake was recorded online using an automated food intake system (HM02, MBRose, Denmark) for 4 days or manually at 0 h for a predose and then 24, 48, 72 and 96 h post dosing. Body weight was measured daily.
Statistical analyses were performed using GraphPad™ Prism version 7. The measured parameters were compared using two-way ANOVA followed by Dunnett's multiple comparison tests. Differences were considered statistically significant at p<0.05.

Data set [5] is described as follows: Assessment of chemical stability in 40 mM buffers at 40° C. (RP-HPLC). The class given is physicochemical. As to conditions: 1 mg/mL; for % degradation after 72 h at 40° C. pH4 acetate: acetate buffer pH 4, 72 h; for % degradation after 72 h at 40° C. pH6 phosphate: phosphate buffer pH 6, 72 h; for % degradation after 72 h at 40° C. pH7 phosphate: phosphate buffer pH 7, 72 h. The method, boiled down:
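Degradation is the main-peak area-% at each time point minus that at t=0, measured by C8 reversed-phase HPLC (TFA/acetonitrile/water gradient, 220 nm). Incubation at 40° C for 3 or 14 days, 1 mg/mL peptide in 40 mM buffer at pH 4, 6 or 7.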

These results are taken from patent publication US11382956B2, “Amylin analogues” (Zealand Pharma A/S, priority 2016, dated 2022).

Numbered stars: 1 amine (or outer) side, 2 acyl side, 3 side chain; on linkers, the order of the positions; unused ones are H or OH. Bridge positions count the residues as written; N and C are the ends. Square brackets hold non-standard residues; d marks the D form. Peptide text beside a SMILES is read from it. * marks the point of attachment. C20 diacid = O=C(O)CCCCCCCCCCCCCCCCCCC(=O)*; γGlu = O=C(O)[C@H](CCC(=O)[*:2])N[*:1]; Hyp = O=C(O)[C@@H]1C[C@@H](O)CN1; NMeI = CC[C@H](C)[C@H](NC)C(=O)O; Aad = N[C@@H](CCCC(=O)O)C(=O)O; Sar = CNCC(=O)O Bounds are passed on as bounds.

Usually EC50 stands for the concentration that produces a half-maximal response.

On to `CC[C@H](C)[C@@H](C(=O)N1CCC[C@H]1C(=O)N[C@@H](CO)C(=O)N[C@@H](CO)C(=O)N[C@H](C(=O)N[C@@H](CCC(=O)O)C(=O)N[C@H](C(=O)NCC(=O)N[C@@H](CO)C(=O)N[C@@H](CC(N)=O)C(=O)N[C@H](C(=O)N1C[C@H](O)C[C@H]1C(N)=O)[C@@H](C)O)C(C)C)[C@@H](C)O)N(C)C(=O)[C@H](C)NC(=O)CN(C)C(=O)[C@H](Cc1ccccc1)NC(=O)[C@H](CO)NC(=O)[C@H](CO)NC(=O)[C@H](CCCNC(=N)N)NC(=O)[C@H](CCC(N)=O)NC(=O)[C@H](CC(C)C)NC(=O)[C@H](Cc1ccccc1)NC(=O)[C@H](Cc1c[nH]cn1)NC(=O)[C@H](C)NC(=O)[C@H](CC(C)C)NC(=O)[C@H](CCCNC(=N)N)NC(=O)[C@H](CCC(N)=O)NC(=O)[C@@H](NC(=O)[C@H](C)NC(=O)[C@@H]1CCCCNC(=O)C[C@H](NC(=O)[C@H](CCCNC(=N)N)NC(=O)CC[C@H](NC(=O)CCCCCCCCCCCCCCCCCCC(=O)O)C(=O)O)C(=O)NCC(=O)N[C@@H]([C@@H](C)O)C(=O)N[C@@H](C)C(=O)N[C@@H]([C@@H](C)O)C(=O)N1)[C@@H](C)O` [Compound 15, [19CD]-isoGlu-RD()GTATK()ATQRLAHFLQRSSF-Gly(Me)-A-Ile(Me)-PSSTEVGSNT-Hyp-NH2] ({C20 diacid-γGlu}-RDGTATKATQRLAHFLQRSSF[Sar]A[NMeI]PSSTEVGSNT[Hyp]-NH2; lactam 2-7), for which, in data set [1], the EC50 is 0.056 nM. For the same compound, the EC50 in data set [2] came out at 0.017 nM. Further, in data set [3], the “Fibrillation (in buffer) pH4 acetate” value was “FND”, the “Fibrillation (in buffer) pH7 histidine” value is recorded as “FD” and the “Fibrillation (in buffer) pH7 phosphate” value was “FD”. Also, in data set [4], the “Body weight reduction in % at 48 h” value amounted to 7.7% and the “Food intake reduction in % at 48 h” value worked out at 71%. In data set [5], the “% degradation after 72 h at 40° C. pH4 acetate” value is under 1%, the “% degradation after 72 h at 40° C. pH6 phosphate” value is listed as under 1% and the “% degradation after 72 h at 40° C. pH7 phosphate” value is on record as under 1%.
Take `CC[C@H](C)[C@@H](C(=O)N[C@@H](CC(C)C)C(=O)N[C@@H](CO)C(=O)N[C@@H](CO)C(=O)N[C@H](C(=O)N[C@@H](CCC(=O)O)C(=O)N[C@H](C(=O)NCC(=O)N[C@@H](CO)C(=O)N[C@@H](CC(N)=O)C(=O)N[C@H](C(=O)N1C[C@H](O)C[C@H]1C(N)=O)[C@@H](C)O)C(C)C)[C@@H](C)O)N(C)C(=O)[C@H](C)NC(=O)CN(C)C(=O)[C@H](Cc1ccccc1)NC(=O)[C@H](CO)NC(=O)[C@H](CO)NC(=O)[C@H](CCCNC(=N)N)NC(=O)[C@H](CCC(N)=O)NC(=O)[C@H](CC(C)C)NC(=O)[C@H](Cc1ccccc1)NC(=O)[C@H](CCCC(=O)O)NC(=O)[C@H](C)NC(=O)[C@H](CC(C)C)NC(=O)[C@H](CCCNC(=N)N)NC(=O)[C@H](CCC(N)=O)NC(=O)[C@@H](NC(=O)[C@H](C)NC(=O)[C@@H]1CCCCNC(=O)C[C@H](NC(=O)[C@H](CCCNC(=N)N)NC(=O)CC[C@H](NC(=O)CCCCCCCCCCCCCCCCCCC(=O)O)C(=O)O)C(=O)NCC(=O)N[C@@H]([C@@H](C)O)C(=O)N[C@@H](C)C(=O)N[C@@H]([C@@H](C)O)C(=O)N1)[C@@H](C)O` [Compound 40, [19CD]-isoGlu-RD()GTATK()ATQRLA-Aad-FLQRSSF-Gly(Me)-A-Ile(Me)-LSSTEVGSNT-Hyp-NH2] ({C20 diacid-γGlu}-RDGTATKATQRLA[Aad]FLQRSSF[Sar]A[NMeI]LSSTEVGSNT[Hyp]-NH2; lactam 2-7): the EC50 in data set [1] turned out to be 0.028 nM. Further, in data set [2], the EC50 came to 0.008 nM. Further, in data set [3], the “Fibrillation (in buffer) pH4 acetate” value is “FD”, the “Fibrillation (in buffer) pH7 histidine” value is “FND” and the “Fibrillation (in buffer) pH7 phosphate” value is on record as “FND”. Besides, in data set [4], the “Body weight reduction in % at 48 h” value turned out to be 7.3% and the “Food intake reduction in % at 48 h” value was 83%. In addition, in data set [5], the “% degradation after 72 h at 40° C. pH4 acetate” value is on record as 1.1%, the “% degradation after 72 h at 40° C. pH6 phosphate” value was under 1% and the “% degradation after 72 h at 40° C. pH7 phosphate” value was under 1%.
